The source of these data is PubChem BioAssay AID977613 (Broad Institute, 2014).

Calls of active or inactive are those of the source. The rule behind the calls is not given here.

The subject of this test is Broad 7084-01 inhibitor HTS, set 2. The test can be described thus: inhibitors in Broad screen 7084-01, set 2 (AID 977613).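 Note: host cells are infected with parasite promastigotes that become internalized.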

Regarding `O=C(C[C@H]1CC[C@@H]2[C@H](COC[C@H](O)CN2CCC(F)(F)F)O1)NCC1CC1`, the active concentration was > 10 µM (inactive).
Regarding `CCc1cnc(N2[C@H](C#N)[C@@H](c3ccccc3C3=CCCCC3)[C@@H]2CO)s1`, the active concentration was > 10 µM (inactive).
In the case of `COc1cccc(S(=O)(=O)N2CCCCN3[C@@H](CO)[C@@H](c4ccc(C#CCC(C)C)cc4)[C@@H]3C2)c1`, the active concentration was > 10 µM (inactive).
Next, `O=S(=O)(c1ccccc1)N1C[C@@H]2[C@H](c3ccccc31)[C@H](CO)N2Cc1ccccn1`: > 10 µM (inactive); `CCS(=O)(=O)N1CC(=O)N2[C@H](C1)[C@@H](c1ccc(C#CC3CCCCC3)cc1)[C@@H]2CO`: > 10 µM (inactive); `CN1C(=O)c2cc(NC(=O)c3cnccn3)ccc2OC[C@@H]2O[C@@H](CC(=O)NCC3CCCCC3)CC[C@H]21`: > 10 µM (inactive).
Next, `Cc1ccccc1-c1ccccc1[C@@H]1[C@@H](C#N)N(C(=O)c2ccccc2)[C@H]1CO`: > 10 µM (inactive); `CN1c2ccc(Br)cc2[C@H]2[C@H](CCN2C(=O)Cc2ccccc2)[C@H]1CO`: > 10 µM (inactive); `C/C=C/c1ccc([C@H]2[C@@H](CO)N3C(=O)CN(Cc4ccc(F)cc4)C[C@@H]23)cc1`: > 10 µM (inactive).
To `COCC(=O)N1CC[C@@H]2[C@H]1c1cc(-c3ccc(F)cc3)ccc1N(C)[C@@H]2CO` belongs > 10 µM (inactive); to `Cc1nn(C)cc1NC(=O)C[C@@H]1CC[C@H]2[C@H](COc3ccc(NC(=O)C4CCOCC4)cc3C(=O)N2C)O1`, > 10 µM (inactive); to `CC=Cc1ccc2n(c1=O)C[C@@H]1[C@@H](CO)[C@H](C(=O)N3CCc4ccccc4C3)N(C(=O)C3CC3)[C@H]21` (mixture of isomers), > 10 µM (inactive).
`O=C(C[C@H]1CC[C@@H]2[C@H](COC[C@H](O)CN2S(=O)(=O)c2ccccc2)O1)Nc1ccccc1`: the active concentration is > 10 µM (inactive).
For the molecule `COc1ccccc1C(=O)N1C[C@H]2[C@@H](c3ccccc31)[C@@H](CO)N2C(=O)Cc1cccnc1`, the active concentration is > 10 µM (inactive).
Turning to `CN(C)CC(=O)N1CC2(C1)[C@@H](c1ccccc1)[C@@H](CO)N2C(=O)C1CC1`, the active concentration was > 10 µM (inactive).
Next, `N#C[C@@H]1[C@@H](c2ccccc2-c2ccccc2F)[C@@H](CO)N1C(=O)Cc1ccccc1`: > 10 µM (inactive).
`O=C(C1CCCCC1)N1CC(=O)N2[C@H](CO)[C@@H](c3ccc(-c4ccccc4F)cc3)[C@H]2C1`: the active concentration was > 10 µM (inactive).
As to `Cc1ccccc1S(=O)(=O)N1CC[C@@H]2[C@@H](CO)Nc3ccc(C#Cc4ccccc4)cc3[C@@H]21`, the active concentration was > 10 µM (inactive).
To `Cc1cccc(S(=O)(=O)N2C[C@H](O)COC[C@@H]3O[C@H](CC(=O)Nc4ccccc4)CC[C@H]32)c1` belongs > 10 µM (inactive).
Next, `C/C=C/c1ccc([C@@H]2[C@@H](CO)N3C(=O)CN(C(=O)c4ccncc4)C[C@@H]23)cc1`: > 10 µM (inactive); `COCC#Cc1ccc([C@H]2[C@@H](CO)N3C(=O)CN(C(=O)Nc4ccccc4F)C[C@@H]23)cc1`: > 10 µM (inactive); `O=S(=O)(c1ccc(F)cc1)N1C[C@@H]2[C@H](c3ccccc31)[C@H](CO)N2Cc1ccc2c(c1)OCO2`: > 10 µM (inactive).
`CN(C)CC(=O)N1CCCCN2[C@H](C1)[C@H](c1ccc(/C=C/c3ccccc3)cc1)[C@@H]2CO`: the active concentration is > 10 µM (inactive).
To `O=C(c1cccc(F)c1)N1CC2(C1)[C@H](c1ccccc1)[C@@H](CO)N2C(=O)C1CCCCC1` belongs > 10 µM (inactive); to `CS(=O)(=O)N1CC2(C1)[C@@H](c1ccccc1)[C@@H](CO)N2Cc1ccccn1`, > 10 µM (inactive); to `COCC(=O)N1[C@H](C#N)[C@H](c2ccccc2-c2ccc(C)cc2)[C@@H]1CO`, > 10 µM (inactive).
Next, `O=C(NC1CCCCC1)[C@@H]1N[C@@H]2c3ccc(-c4cccc(F)c4)c(=O)n3C[C@@H]2[C@H]1CO`: > 10 µM (inactive); `OC[C@@H]1[C@@H](c2ccccc2)C2(CN(Cc3nccs3)C2)N1CC1CCOCC1`: > 10 µM (inactive); `CCCNC(=O)N1[C@@H](CO)[C@@H](c2ccccc2)C12CN(C(=O)C1CCCCC1)C2`: > 10 µM (inactive).
Next, `CN(C)CC(=O)N1CC2(C1)[C@H](c1ccccc1)[C@@H](CO)N2S(C)(=O)=O`: > 10 µM (inactive); `O=C(Cc1ccncc1)N1CC[C@@H]2[C@H](CO)Nc3ccc(-c4ccccc4F)cc3[C@@H]21`: > 10 µM (inactive); `C[C@H](O)C#Cc1ccc([C@H]2[C@@H](CO)N3CCCCN(C(=O)c4ccc5c(c4)OCO5)C[C@@H]23)cc1`: > 10 µM (inactive).
Take `O=C(C[C@H]1CC[C@@H]2[C@H](COC[C@@H](O)CN2Cc2cc(F)ccc2F)O1)NCc1ccc(F)cc1`: the active concentration was > 10 µM (inactive).
As for `O=C(C[C@@H]1CC[C@H]2[C@@H](COC[C@@H](O)CN2C(=O)Nc2ccc(Cl)cc2)O1)NCC1CC1`, the active concentration is > 10 µM (inactive).
Next, `O=C([C@@H]1[C@@H](CO)[C@@H]2Cn3c(ccc(C4=CCCC4)c3=O)[C@H]1N2C(=O)c1ccncc1)N1CCOCC1`: > 10 µM (inactive); `COc1ccc(NC(=O)N2CC(=O)N3[C@H](CO)[C@@H](c4ccc(Br)cc4)[C@@H]3C2)cc1`: > 10 µM (inactive).
To `COc1cccc(-c2ccc3c(c2)[C@H]2[C@H](CCN2S(=O)(=O)c2cn(C)cn2)[C@H](CO)N3)c1` belongs > 10 µM (inactive); to `O=C(CC(F)(F)F)N1C[C@@H]2[C@H](c3ccccc31)[C@H](CO)N2C(=O)C1CC1`, > 10 µM (inactive); to `Cc1ccc(S(=O)(=O)N2CC[C@H]3[C@H](CO)Nc4ccc(C#Cc5ccc(F)cc5)cc4[C@H]32)cc1`, > 10 µM (inactive).
For the molecule `CCN1CC(=O)N2[C@H](CO)[C@@H](c3ccc(Br)cc3)[C@H]2C1`, the active concentration is > 10 µM (inactive).
On to `CN(C)C(=O)C[C@H]1CC[C@H]2[C@@H](COC[C@H](O)CN2CC2CC2)O1`, for which the active concentration is > 10 µM (inactive).
Next, `O=C(C[C@@H]1CC[C@H]2[C@@H](COC[C@@H](O)CN2C(=O)c2ccc3c(c2)OCO3)O1)NC1CCC1`: > 10 µM (inactive).
Next, `COc1ccc2c3c([nH]c2c1)[C@@H](CO)N(C(=O)Nc1ccc(F)cc1)CC31CN(S(=O)(=O)c2ccc(C)cc2)C1`: > 10 µM (inactive); `OC[C@H]1[C@H]2c3ccccc3NC[C@H]2N1Cc1cccnc1`: > 10 µM (inactive).
With `O=C(CC1CC1)N1CC(=O)N2[C@H](CO)[C@H](c3ccc(/C=C/c4ccccc4)cc3)[C@@H]2C1`, the active concentration was > 10 µM (inactive).
`Cc1ccc(-c2ccccc2[C@H]2[C@@H](C#N)N(c3ncc(-c4ccccc4)s3)[C@@H]2CO)cc1`: the active concentration was > 10 µM (inactive).
For `CN1[C@@H]2CNc3ccccc3[C@@H]2[C@@H]1CO`, the active concentration was > 10 µM (inactive).
To `C/C=C/c1ccc([C@H]2[C@H]3CN(S(=O)(=O)c4ccc(OC)cc4)CCCCN3[C@H]2CO)cc1` belongs > 10 µM (inactive); to `CCCC#Cc1ccc([C@@H]2[C@@H](CO)N3CCCCN(CCC)C[C@@H]23)cc1`, > 10 µM (inactive).
Next, `COc1ccc2c3c([nH]c2c1)[C@H](CO)N(Cc1ccncc1)CC31CCN(CC2CCOCC2)CC1`: > 10 µM (inactive).
To `CN1C(=O)c2cc(NC(=O)Nc3ccccc3Cl)ccc2OC[C@H]2O[C@H](CC(=O)NCCCN3CCOCC3)CC[C@@H]21` belongs > 10 µM (inactive); to `CN1CCN(C(=O)C[C@@H]2CC[C@H]3[C@@H](COC[C@@H](O)CN3C(=O)C3CC3)O2)CC1`, > 10 µM (inactive).
As for `O=C(C[C@@H]1CC[C@@H]2[C@H](COC[C@@H](O)CN2C(=O)c2ccccc2F)O1)NCc1ccccc1`, the active concentration was > 10 µM (inactive).
To `CCCN1[C@H](C(=O)NCCCN2CCOCC2)[C@@H](CO)[C@@H]2Cn3c(ccc(-c4ccncc4)c3=O)[C@@H]21` belongs > 10 µM (inactive); to `CC1C=NC(S(=O)(=O)N2CC[C@@H]3[C@H](CO)N(C)c4ccc(-c5ccccc5F)cc4[C@@H]32)=N1` (some centres undefined), > 10 µM (inactive); to `CC=Cc1ccc2n(c1=O)C[C@H]1[C@H](CO)[C@@H](C(=O)N[C@@H](C)c3ccccc3)N(C(=O)c3cnccn3)[C@@H]21` (mixture of isomers), > 10 µM (inactive).
To `O=C(C[C@H]1CC[C@@H]2[C@H](COC[C@@H](O)CN2C(=O)c2ccncc2)O1)NCc1ccc(-c2ccccc2)cc1` belongs > 10 µM (inactive); to `O=C([C@H]1[C@H](CO)[C@H]2Cn3c(cccc3=O)[C@H]2N1Cc1ccccc1Cl)N1CCCCC1`, > 10 µM (inactive); to `CCC(=O)N1C[C@@H]2[C@H](c3ccccc31)[C@H](CO)N2C(=O)CC`, > 10 µM (inactive).
Next, `O=C(CC1CC1)N1[C@H](CO)[C@@H]2c3ccccc3N(S(=O)(=O)c3ccccc3F)C[C@@H]21`: > 10 µM (inactive); `O=C(C[C@H]1CC[C@H]2[C@@H](COC[C@H](O)CN2S(=O)(=O)c2ccc(F)cc2)O1)NCC1CC1`: > 10 µM (inactive); `COc1cccc(S(=O)(=O)N2CCCCN3[C@H](CO)[C@H](c4ccc(C#CCC(C)C)cc4)[C@@H]3C2)c1`: > 10 µM (inactive).
With `O=C(C1CCOCC1)N1[C@@H](CO)[C@@H](c2ccccc2)C12CN(Cc1cccc(Cl)c1)C2`, the active concentration is > 10 µM (inactive).
Consider `Cc1nn(C)cc1NC(=O)C[C@H]1CC[C@@H]2[C@@H](COc3ccc(NC(=O)C4CCOCC4)cc3C(=O)N2C)O1`, for which the active concentration is > 10 µM (inactive).
